Among the test systems are T-47D breast; OVCAR-3 ovarian; HCT-116 colon; 786-0 renal; UACC-62 melanoma; MOLT-4 leukemia; U251 CNS; BT-549 breast; A549 NSCLC; HCT-15 colon.
Test in all cases: NCI tumour cell line growth inhibition, 48 h

“And” between values parts separate entries of the source, which are not always exact repeats. Identical values can stand only once.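 The compound was tested at five concentrations on cells cultured in 96-well plates, with a 48-hour exposure period. GI50 marks 50% less growth. TGI: total growth inhibition.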

From PubChem BioAssay (NCI) come the findings set out here.

Regarding `CCN1CCN(c2ccc(Nc3ncc4ccc5ncn(C(C)C)c5c4n3)nc2)CC1`, the GI50 in the test on T-47D breast is 0.199 µM; in the test with OVCAR-3 ovarian, 0.192 µM; in the test on HCT-116 colon it was 0.0312 µM; in the test with 786-0 renal, 0.102 µM; in the test on UACC-62 melanoma, 0.199 µM; with MOLT-4 leukemia, 0.0416 µM. In addition, the GI50 in the test with U251 CNS was 0.108 µM; in the test on BT-549 breast it was 0.218 µM; in the test with A549 NSCLC, 0.0838 µM; in the test with HCT-15 colon it was 0.0636 µM. In addition, the TGI in the test with T-47D breast worked out at 7.3 µM; in the test on OVCAR-3 ovarian it was 0.523 µM; in the test with HCT-116 colon, 0.55 µM; in the test with 786-0 renal it was 1.69 µM; with UACC-62 melanoma, 0.723 µM; with MOLT-4 leukemia, 1.91 µM. Moreover, the TGI in the test on U251 CNS came out at 3.94 µM; in the test with BT-549 breast, 0.687 µM; in the test on A549 NSCLC it was 10.4 µM; in the test with HCT-15 colon, 1.16 µM.
Consider `Nc1ccc(-c2ccc(-c3nc4cc(Cl)c(Cl)cc4[nH]3)cc2)cc1`, for which the GI50 was 0.275 µM in the test with T-47D breast; 0.944 µM in the test with OVCAR-3 ovarian; 0.503 µM with HCT-116 colon; 2.05 µM in the test with 786-0 renal; less than 0.0215 µM in the test with UACC-62 melanoma; 1.66 µM in the test with MOLT-4 leukemia. In addition, the GI50 with U251 CNS is 12 µM; with BT-549 breast it was 27.4 µM; with A549 NSCLC, 1.46 µM; in the test on HCT-15 colon it was 0.406 µM. Moreover, the TGI was greater than 100 µM with T-47D breast; greater than 100 µM in the test on HCT-116 colon; 18.9 µM in the test with 786-0 renal; greater than 45 µM in the test with UACC-62 melanoma; greater than 85 µM with MOLT-4 leukemia; greater than 53.1 µM with U251 CNS. The TGI with BT-549 breast, with A549 NSCLC and in the test on HCT-15 colon was greater than 100 µM throughout.
With `COc1cc(N2CCC(N3CCN(C)CC3)CC2)ccc1Nc1ncc(Cl)c(Nc2ccccc2S(=O)(=O)C(C)C)n1`, the GI50 with T-47D breast was 1.59 µM; with OVCAR-3 ovarian, 2.22 µM; in the test with HCT-116 colon it was 0.358 µM; in the test on 786-0 renal, 1.12 µM; in the test with UACC-62 melanoma, 1.18 µM; in the test on MOLT-4 leukemia it was 0.809 µM. The GI50 is 1 µM in the test on U251 CNS, 2.09 µM in the test on BT-549 breast, 0.402 µM with A549 NSCLC and 1.94 µM in the test with HCT-15 colon. Moreover, the TGI in the test with T-47D breast turned out to be 3.55 µM; in the test with OVCAR-3 ovarian, 6.87 µM; in the test on HCT-116 colon, 1.64 µM; in the test on 786-0 renal, 2.44 µM; in the test on UACC-62 melanoma it was 3.39 µM; with MOLT-4 leukemia, 5.71 µM. For the same compound, the TGI amounted to 2.4 µM in the test with U251 CNS, 5.6 µM in the test with BT-549 breast, 2.03 µM in the test on A549 NSCLC and 11.5 µM in the test on HCT-15 colon.
Take `CNC(=O)CN1CCC(Oc2cc3c(Nc4cccc(Cl)c4F)ncnc3cc2OC)CC1`: the GI50 with T-47D breast is 1.24 µM and 0.53 µM; with OVCAR-3 ovarian, 3.83 µM and 2.34 µM; with HCT-116 colon, 14.8 µM and > 5.44 µM; in the test on 786-0 renal, 5.28 µM and 5.31 µM; with UACC-62 melanoma, 16.3 µM and > 10 µM; in the test with MOLT-4 leukemia, 16 µM and > 6.28 µM. Moreover, the GI50 with U251 CNS is 17 µM and > 6.47 µM; in the test with BT-549 breast it was 16.2 µM and > 10 µM; with A549 NSCLC, 5.66 µM and > 4.69 µM; with HCT-15 colon it was 11.2 µM and > 5.17 µM. For the same compound, the TGI with T-47D breast was 18.1 µM and > 7.9 µM; with OVCAR-3 ovarian, 18.8 µM and > 10 µM; with HCT-116 colon it was 28.5 µM and > 10 µM; in the test on 786-0 renal, 27.8 µM and > 10 µM; in the test on UACC-62 melanoma, 32.6 µM and > 10 µM; in the test on MOLT-4 leukemia, greater than 74.5 µM. Besides, the TGI is 45.9 µM and > 10 µM in the test with U251 CNS; 38.9 µM and > 10 µM in the test on BT-549 breast; 22.9 µM and > 10 µM with A549 NSCLC; 67.6 µM and > 10 µM in the test with HCT-15 colon.
On to `CC1=CC(=O)c2ccc(C)cc2C1=O`, for which the TGI amounted to 15 µM with T-47D breast; 29.1 µM in the test with OVCAR-3 ovarian; 15.1 µM with HCT-116 colon; 44.3 µM in the test with 786-0 renal; 21.9 µM in the test with UACC-62 melanoma; 6.24 µM with MOLT-4 leukemia. The TGI in the test on U251 CNS was 25.7 µM; in the test on BT-549 breast, 25 µM; with A549 NSCLC, 36.9 µM; with HCT-15 colon, 27.3 µM.
For `COc1ccc2c(c1)C(=O)c1c-2c(NCCN(C)C)nc2ccccc12`, the GI50 in the test on T-47D breast is 14.8 µM; in the test on OVCAR-3 ovarian, 2.29 µM; in the test on HCT-116 colon, 15.1 µM; in the test with 786-0 renal, 2.65 µM; with UACC-62 melanoma, 15.8 µM; in the test on MOLT-4 leukemia, 0.291 µM. The GI50 in the test with U251 CNS was 2.47 µM; in the test on BT-549 breast, 5.99 µM; in the test with A549 NSCLC, 0.946 µM; in the test on HCT-15 colon, 2.72 µM. Also, the TGI with T-47D breast was found to be 34.6 µM; in the test with OVCAR-3 ovarian it was 9.34 µM; in the test with HCT-116 colon, 28.3 µM; in the test on 786-0 renal, 9.1 µM; in the test on UACC-62 melanoma, 29.4 µM; in the test with MOLT-4 leukemia it was 1.15 µM. The TGI in the test with U251 CNS worked out at 11.7 µM; in the test on BT-549 breast, 19.3 µM; in the test on A549 NSCLC it was 4.49 µM; with HCT-15 colon it was 16.6 µM.
For the compound `Cc1ccc(C2=NN(c3ccc(S(N)(=O)=O)cc3)C(c3cn(-c4ccccc4)nc3-c3ccccc3)C2)cc1` (centres undefined), the GI50 in the test with T-47D breast is 9.13 µM; in the test on OVCAR-3 ovarian, 14.3 µM; with HCT-116 colon, 3.07 µM; in the test with 786-0 renal, 4.69 µM; in the test with UACC-62 melanoma it was 32.4 µM; in the test on MOLT-4 leukemia, 3.72 µM. Besides, the GI50 in the test with U251 CNS is 19.6 µM; in the test on BT-549 breast it was 3.85 µM; with A549 NSCLC it was 6.75 µM; in the test with HCT-15 colon it was 7.53 µM. The TGI in the test with T-47D breast was greater than 100 µM; in the test on OVCAR-3 ovarian, greater than 100 µM; in the test on HCT-116 colon it was 42 µM; with 786-0 renal, greater than 100 µM; with UACC-62 melanoma it was greater than 100 µM; in the test on MOLT-4 leukemia, greater than 100 µM. The TGI is greater than 100 µM with U251 CNS, 61.6 µM with BT-549 breast, greater than 100 µM with A549 NSCLC and greater than 100 µM with HCT-15 colon.
Regarding `O=S(=O)(CCCCl)SCCCCl`, the TGI with T-47D breast is 98.2 µM; in the test with OVCAR-3 ovarian, greater than 66.6 µM; with HCT-116 colon, 51.1 µM; in the test with 786-0 renal, 33.2 µM; in the test on UACC-62 melanoma it was greater than 100 µM; in the test on MOLT-4 leukemia it was 38.5 µM. The TGI with U251 CNS was greater than 69.3 µM; in the test with BT-549 breast, 28.1 µM; with A549 NSCLC, greater than 100 µM; in the test with HCT-15 colon, 54.7 µM.
`COc1ccc(C(c2cc3c(cc2O)OCO3)N2CCOCC2)cc1OC` (centres undefined): the TGI was determined as 45.8 µM in the test on T-47D breast; 20.5 µM in the test on OVCAR-3 ovarian; 22.9 µM in the test on HCT-116 colon; 23.1 µM in the test on 786-0 renal; 19.9 µM in the test on UACC-62 melanoma; 80.8 µM with MOLT-4 leukemia. Besides, the TGI was determined as 21.4 µM in the test with U251 CNS, 43.8 µM in the test on BT-549 breast, 51.9 µM in the test with A549 NSCLC and 15.8 µM in the test on HCT-15 colon.
